Data on nine molecules can be found in patent US20130164351A1 (priority 2010, published 2013).

The test system of data set [1] is MRSA strains from cystic fibrosis patients. As to the kind of experiment: CLSI microdilution MICs against 40 MRSA strains. Also noted: MICs (range): unit not given beside the values. It is filed as cell-based, Staphylococcus aureus. The procedure:
Strains. Two strains each of mucoid Pseudomonas aeruginosa (both pyocyanin positive) and 40 MRSA (only one strain with gold colonies), isolated within the past 12 months and beyond from patients at in cystic fibrosis clinic, were tested. Additionally, two B. cepacia strains were acquired from Hershey Medical Center. All strains were identified by standard methods. Only one strain per patient was tested. MLVA was done on all strains, to examine clonality and to ensure that testing was not being limited to only one or a few clones. Strains were stored in skim milk at −70° C. until use.
(§1) Susceptibility testing. Original MICs of each strain to CEM-102 and other comparators was tested by CLSI microdilution methodology. Trays were obtained from Trek, Inc., Cleveland, Ohio. Time-kill macrobroth MIC dilution by CLSI was performed for all synergy testing.
MICs were assayed by standard methodology.
In general terms: Dilution methods test growth across graded concentrations, often in twofold steps.

In data set [2] the test system is P. aeruginosa strains from cystic fibrosis patients. As to the kind of experiment: Macrobroth dilution MICs against two P. aeruginosa strains. It is filed as cell-based, Pseudomonas aeruginosa.
For data set [3] the following is noted: blood; cited from earlier work.
Data set [4] deals with MRSA strains SA 2230, SA 2232. Description: Time-kill macrobroth MICs, MRSA strains SA 2230 and SA 2232. It is filed as cell-based, Staphylococcus aureus. As for the experimental part:
as §1
(§2) Synergy testing. Two of the MRSA strains were chosen and tested for synergy, together with the four Gram-negative strains mentioned above. Broth macrodilution formed the basis of MICs used in time-kill experiments, as detailed below. The kill kinetics of each drug was tested alone by incubating an initial inoculum of 5×10^5 to 5×10^6 cfu/ml with drug concentrations at the MIC, three dilutions above and three dilutions below the MIC (1/2, 1/4 and 1/8×MIC). Viability counts were performed after 0, 3, 6, 12 and 24 h incubation at 37° C. in a shaking water bath by plating onto trypticase soy-5% sheep blood agar plates.

Data set [5] concerns B. cepacia strains from cystic fibrosis patients. Description: Macrobroth dilution MICs against two B. cepacia strains. It is filed as cell-based, Burkholderia cepacia.
The subject of data set [6] is P. aeruginosa strains PSAR 461, PSAR 468. As to the kind of experiment: Time-kill macrobroth MICs, P. aeruginosa strains PSAR 461 and PSAR 468. As to conditions: strain PSAR 468. Type of data set: cell-based, Pseudomonas aeruginosa. The procedure:
as §1, §2

Data set [7] concerns B. cepacia strains BCEP 953, BCEP 954. Description: Time-kill macrobroth MICs, B. cepacia strains BCEP 953 and BCEP 954. It is filed as cell-based, Burkholderia cepacia. The procedure: as §1, §2
[8] abbreviates: Staphylococcus aureus, microdilution, 40 MRSA strains.

For `CC(=O)NC[C@H]1CN(c2ccc(N3CCOCC3)c(F)c2)C(=O)O1` [Linezolid], the “MICs (range)” value in data set [1] (all MRSA strains tested) was 1-4. For the same molecule, in data set [1] (microdilution, 40 MRSA strains), the “MIC Range” value lay within 1 to 4 µg/mL.

With `CN[C@H](CC(C)C)C(=O)N[C@H]1C(=O)N[C@@H](CC(N)=O)C(=O)N[C@H]2C(=O)N[C@H]3C(=O)N[C@H](C(=O)N[C@H](C(=O)O)c4cc(O)cc(O)c4-c4cc3ccc4O)[C@H](O)c3ccc(c(Cl)c3)Oc3cc2cc(c3O[C@@H]2O[C@H](CO)[C@@H](O)[C@H](O)[C@H]2O[C@H]2C[C@](C)(N)[C@H](O)[C@H](C)O2)Oc2ccc(cc2Cl)[C@H]1O` [Vancomycin], in data set [1] (microdilution, 40 MRSA strains), the “MIC Range” value is given as 0.5-1^ μg/ml.

For `NCC[C@H](O)C(=O)N[C@@H]1C[C@H](N)[C@@H](O[C@H]2O[C@H](CN)[C@@H](O)[C@H](O)[C@H]2O)[C@H](O)[C@H]1O[C@H]1O[C@H](CO)[C@@H](O)[C@H](N)[C@H]1O` [Amikacin], the “MIC Range” value in data set [2] fell in the range of 2 to 8 µg/mL.

Turning to `CC(=O)O[C@H]1C[C@@]2(C)[C@@H](C[C@@H](O)[C@H]3[C@@]4(C)CC[C@@H](O)[C@@H](C)[C@@H]4CC[C@@]32C)/C1=C(\CCC=C(C)C)C(=O)O` [FA, Fusidic Acid], the protein binding in data set [3] is 95-97%.

For the molecule `CCCCCCCCCC(=O)N[C@@H](Cc1c[nH]c2ccccc12)C(=O)N[C@H](CC(N)=O)C(=O)N[C@@H](CC(=O)O)C(=O)N[C@@H]1C(=O)NCC(=O)N[C@@H](CCCN)C(=O)N[C@@H](CC(=O)O)C(=O)N[C@H](C)C(=O)N[C@@H](CC(=O)O)C(=O)NCC(=O)N[C@H](CO)C(=O)N[C@@H]([C@H](C)CC(=O)O)C(=O)N[C@@H](CC(=O)c2ccccc2N)C(=O)O[C@@H]1C` [Daptomycin], the “MIC Range” value in data set [1] (microdilution, 40 MRSA strains) is 0.5-1^ μg/ml.

For the molecule Teicoplanin, the “MIC Range” value in data set [1] (microdilution, 40 MRSA strains) was 0.25 to 1 µg/mL.

Turning to `CN(C)c1cc(NC(=O)CNC(C)(C)C)c(O)c2c1C[C@H]1C[C@H]3[C@H](N(C)C)C(O)=C(C(N)=O)C(=O)[C@@]3(O)C(O)=C1C2=O` [Tigecycline], in data set [1] (microdilution, 40 MRSA strains), the “MIC Range” value was 0.12 to 0.25 µg/mL.

For `NC[C@H]1O[C@H](O[C@H]2[C@H](O)[C@@H](O[C@H]3O[C@H](CO)[C@@H](O)[C@H](N)[C@H]3O)[C@H](N)C[C@@H]2N)[C@H](N)C[C@@H]1O` [Tobramycin, reference compound], in data set [2], the “MIC Range” value lay within 0.25 to 1.0 µg/mL. For the same molecule, the “MIC (reason strain not tested in combination)” value in data set [4] (strain MRSA 2232) is above 512 µg/mL.

`CC(=O)O[C@H]1C[C@@]2(C)[C@@H](C[C@@H](O)[C@H]3[C@@]4(C)CC[C@@H](O)[C@@H](C)[C@@H]4CC[C@@]32C)/C1=C(\CCC=C(C)C)C(=O)[O-].[Na+]` [CEM-102, Sodium fusidate]: the MIC50 in data set [1] (setting [8]) was 0.12 µg/mL. The MIC90 in data set [1] (setting [8]) was found to be 0.25 µg/mL. Further, in data set [1] (all strains of MRSA tested), the Potency in words entry is reported as “very potent”. Further, the “MIC Range” value is 0.12 to 0.5 µg/mL in data set [1] (microdilution, 40 MRSA strains); above 64 µg/mL in data set [2]; above 64 µg/mL in data set [5]. For the same molecule, the “Time-kill macrobroth MIC” value in data set [4] (strain SA 2230) was 0.5 µg/mL; in data set [4] (strain SA 2232) it was 0.25 µg/mL; in data set [6], 256 µg/mL; in data set [7] (strain BCEP 953), 512 µg/mL; in data set [7] (strain BCEP 954), 512 µg/mL.

For orientation: MIC50 means an inhibitory concentration at the 50% level, which refers to growth in some studies and to a panel of isolates in others. For orientation: MIC90 means the lowest concentration that inhibits either 90% of growth or 90% of the strains tested, depending on the study.
